Experimental data reported in patent US11078171B2, “Non-ATP/catalytic site p38 mitogen activated protein kinase inhibitors” (University of Maryland, Baltimore, priority 2018, dated 2021).
Where two headings read alike, the source gives them in different places.

How the values were obtained:
[1] = patients with Crohn's disease; cited from earlier work
[2] = biological target: T1, p38β (Homo sapiens, UniProt Q15759); assay: DSF, binding to p38β
T1 construct: HA (N); made in house; host or cells: E. coli BL21

[3] = system: HMVECL monolayers; assay: Endothelial permeability assay (10 kDa dextran flux), TNFα/hyperthermia; assay type: cell-based, human
Experimental: Endothelial permeability assay: Permeability of HMVECL monolayers was assessed by measuring transendothelial flux of 10 kDa dextran conjugated to Cascade blue fluorescent dye for 30 min at 37° C. in Matrigel-coated 3 μm pore size Transwell plates.
The capacity of UM60 and UM101 to stabilize endothelial barriers to macromolecules and neutrophils in TNFα- and hyperthermia-stressed HMVECL monolayers was tested (FIG. 2).

[4] = system: HMVECLs; assay: IL-8-directed neutrophil transendothelial migration (TEM) assay; assay type: cell-based, human
Experimental: Neutrophil transendothelial migration (TEM) assay: Neutrophils were isolated from heparinized venous blood that was collected from healthy volunteers using a protocol approved by the University of Maryland Institutional Review Board and TEM of calcein-labeled neutrophils through HMVECLs was measured.

[5] = system: MK2 phosphorylation in anisomycin-stimulated HeLa cells; assay: Inhibition of substrate phosphorylation, phospho-MK2 immunoblot; assay type: cell-based, human; conditions: 30 min pretreatment
Experimental: (§1) Inhibition of substrate phosphorylation: A functional analysis of UM101 to block p38-dependent phosphorylation of MK2 and Stat-1 was performed in HeLa cells. […] Cell extracts prepared in RIPA buffer containing protease and phosphatase inhibitors were resolved by SDS-PAGE, transferred to PVDF membrane, blocked with 5% nonfat dry milk, probed with primary antibodies against phosphorylated MK2 and Stat-1, and total p38α as a loading control. Bands were detected using secondary antibodies conjugated to infrared fluorophores and infrared fluorescence imaging (Odyssey; LICOR).

[6] = system: Stat-1 phosphorylation in anisomycin-stimulated HeLa cells; assay: Inhibition of substrate phosphorylation, phospho-Stat-1 immunoblot; assay type: cell-based, human; conditions: 30 min pretreatment
Experimental: as §1

[7] = system: LPS/hyperthermia-induced ALI in mice; conditions: for mice died within 24 h: 1000 μg i.p. 30 min prior to 50 μg LPS i.t./hyperthermia
[8] = system: LPS-induced acute lung injury in mice; assay: Mouse LPS acute lung injury model with UM101 analogues, total protein in lung lavage fluid (FIG. 9, FIG. 10); assay type: in vivo
Experimental: FIG. 9 illustrates that UM101 and analogues inhibit acute lung injury in a mouse model. Mice were pretreated i.p. with 1 mg of test compounds and then treated with […] LPS i.t. at 39° C. to induce inflammation. Lung injury was assessed by measuring total protein in the lung lavage fluid.
FIG. 10 illustrates that UM101 and analogues inhibit acute lung injury in a mouse model. All mice received 50 μg LPS i.t. and were kept 24 h at 39° C.; all treatments 1 mg in 0.5 ml DMSO given 6 h post-LPS; mean SM, n=5, *p=0.03 vs DMSO #1; †p=0.16 vs DMSO #2. Lung injury was assessed by measuring total protein in the lung lavage fluid.
First, the compounds can block thrombin-induced cell permeability in human vascular endothelial cells (FIG. 8). […] Mice were pretreated i.p. with 1 mg of test compounds and then treated with […] LPS i.t. at 39° C. to induce inflammation. Lung injury was assessed by measuring total protein in the lung lavage fluid. […] All mice received 50 μg LPS i.t. and were kept 24 h at 39° C.; all treatments 1 mg in 0.5 ml DMSO given 6 h post-LPS; mean±SM, n=5, *p=0.03 vs DMSO #1; †p=0.16 vs DMSO #2. Lung injury was assessed by measuring total protein in the lung lavage fluid.

[9] = biological target: ERK2 (Homo sapiens, UniProt P28482); assay: DSF, binding to ERK2; conditions: 10-100 μM
Experimental: Differential Scanning Fluorimetry (DSF): Binding of CADD selected compounds to p38α and […] was tested experimentally using DSF, which evaluates changes in the target protein melting temperature (ΔTm) due to interactions with test compound. SYPRO orange (Invitrogen; diluted 1:1000 in 10 mM HEPES, 150 mM NaCl, pH 7.5) and 1 μM unphosphorylated recombinant human p38α were added to 96-well PCR plates, then 50 nM to 200 μM test compound in 100% DMSO (2% final DMSO concentration) was added, the plates mixed, sealed, centrifuged at 1000 rpm for 1 min, and melting curve performed using an Applied Biosystems real time PCR instrument. The melting point was determined from the first derivative curve. In addition, […], or target-disrupted p38α mutant are used as well.
Test compounds at 10-100 μM were screened for binding to recombinant p38α and ERK2 using DSF (FIG. 1e, Table 1).

[10] = system: HMVECLs; assay: MTS cytotoxicity assay; assay type: cell-based, human; conditions: 100 μM for 48 h
Experimental: (§2) Cytotoxicity of HMVECL exposed to 10-100 μM of each compound is analyzed by MTS assay (Promega), LDH release (Promega), and immunoblotting for activated caspase-3 (Cell Signaling).
Cytotoxicity assay: Cytotoxicity was monitored in parallel HMVEC-L monolayers established in 96-well culture plates using a colorimetric assay that measured reduction of 3-(4,5-dimethylthiazol-2-yl)-5-(3-carboxymethoxyphenyl)-2-(4-sulfophenyl)-2H-tetrazolium (MTS) to a formazan dye (CellTiter 96™; Promega; Madison, Wis.) according to the manufacturer's protocol and quantifying product formation by measuring absorption at 490 nm.

[11] = system: HMVECLs; assay: LDH release cytotoxicity assay; assay type: cell-based, human; conditions: 100 μM for 48 h
Experimental: as §2

[12] = biological target: T2, p38α (Homo sapiens, UniProt Q16539); assay: Differential scanning fluorimetry (DSF), binding to p38α; conditions: for stabilization of p38α (DSF): 10-100 μM; for ΔTm at 100 µM: read-out: increase of the melting temperature of p38α
[13] = biological target: T3, p38α mutant (R49K/HL107-8TF/K165R) (Homo sapiens, UniProt Q16539, H107T/K165R/L108F/R49K); assay: DSF, binding to p38α mutant with 4 mutations in CADD-targeted pocket; conditions: four of ten target pocket amino acids substituted
T3 construct: made in house; host or cells: E. coli BL21

[14] = biological target: T1, p38β; assay: STD-NMR with p38β; assay type: binding; conditions: 200 μM UM101, 5 μM protein
Experimental: (§3) Saturation Transfer Difference Nuclear Magnetic Resonance (STD-NMR): A 40 mM stock solution of UM101 was made in d6-DMSO. STD-NMR samples contained 150 mM NaCl, 50 mM phosphate, pH 7,200 μM UM101, and 5 μM p38 protein in D20. Spectra were recorded on an Agilent DD2 500-MHz spectrometer equipped with a 5-mm inverse HFCN probe head at 300 K. During each transient, the protein was saturated with a series of 58 […]-shaped pulses (50 ms, 1 ms delay between pulses) using the vendor-supplied STD-ES pulse sequence, for a total saturation time of 3 seconds. The on-resonance irradiation of protein was done at 0.5 ppm and off-resonance irradiation at 30 ppm. The vendor-supplied WATERGATE pulse sequence was used to suppress the water signal in the STD spectrum. The on-resonance and off-resonance pulse sequences were subtracted internally. A total of 16,384 transients were collected for each STD experiment with a 1 second delay between acquisitions, 6000 Hz spectral width, and 1.3 second acquisition time.
(§4) Selective binding of UM101 to the CADD-targeted pocket in p38α was confirmed using Saturation Transfer Difference (STD)-NMR. The peaks in the 1D spectrum are labeled according to tentative peak assignments of UM101 in aqueous form, based on assignments of UM101 in 2 mM d6-DMSO, which were obtained from the use of 1D proton and C13 and 2D-HMBC experiments. […]

[15] = biological target: T4, mutated p38α (Homo sapiens, UniProt Q16539, H107T/K165R/L108F/R49K); assay: STD-NMR with mutated p38α; assay type: binding; conditions: 200 μM UM101, 5 μM protein
T4 construct: made in house; host or cells: E. coli BL21
Experimental: as §3, §4

[16] = biological target: T2, p38α; assay: STD-NMR with p38α; assay type: binding; design: made in house; host or cells: E. coli BL21; conditions: 200 μM UM101, 5 μM protein
Experimental: as §3, §4

[17] = rheumatoid arthritis, two trials; cited from earlier work
[18] = patients at-risk for ARDS; cited from earlier work
[19] = patients with hypercholesterolemia; cited from earlier work
[20] = FIG. 9: pretreated i.p. with 1 mg, then 100 mg LPS i.t. at 39° C.
[21] = FIG. 10: 50 μg LPS i.t., 24 h at 39° C., 1 mg in 0.5 ml DMSO given 6 h post-LPS

T1 sequence (Q15759 whole entry): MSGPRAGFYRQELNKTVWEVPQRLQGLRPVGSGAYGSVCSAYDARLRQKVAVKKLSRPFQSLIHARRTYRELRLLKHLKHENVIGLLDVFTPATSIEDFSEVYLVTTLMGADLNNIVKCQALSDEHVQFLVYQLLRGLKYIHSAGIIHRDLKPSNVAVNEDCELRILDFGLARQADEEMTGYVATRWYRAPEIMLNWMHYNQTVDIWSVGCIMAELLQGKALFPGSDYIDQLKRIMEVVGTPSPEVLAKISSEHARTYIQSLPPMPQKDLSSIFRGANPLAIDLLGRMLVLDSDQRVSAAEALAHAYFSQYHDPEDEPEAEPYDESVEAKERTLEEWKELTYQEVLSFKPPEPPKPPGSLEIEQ
T2 sequence (Q16539 whole entry): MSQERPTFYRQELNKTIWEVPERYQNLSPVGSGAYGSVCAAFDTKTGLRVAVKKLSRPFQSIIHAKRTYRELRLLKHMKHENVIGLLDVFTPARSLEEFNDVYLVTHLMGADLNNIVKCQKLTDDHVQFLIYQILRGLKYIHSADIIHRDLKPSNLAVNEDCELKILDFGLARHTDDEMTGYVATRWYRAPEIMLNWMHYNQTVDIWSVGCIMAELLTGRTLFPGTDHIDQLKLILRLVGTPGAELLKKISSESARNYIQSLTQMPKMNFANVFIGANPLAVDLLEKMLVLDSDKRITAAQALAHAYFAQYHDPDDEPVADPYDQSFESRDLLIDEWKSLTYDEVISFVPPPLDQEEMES
ERK2, sequence (P28482 whole entry, species assumed): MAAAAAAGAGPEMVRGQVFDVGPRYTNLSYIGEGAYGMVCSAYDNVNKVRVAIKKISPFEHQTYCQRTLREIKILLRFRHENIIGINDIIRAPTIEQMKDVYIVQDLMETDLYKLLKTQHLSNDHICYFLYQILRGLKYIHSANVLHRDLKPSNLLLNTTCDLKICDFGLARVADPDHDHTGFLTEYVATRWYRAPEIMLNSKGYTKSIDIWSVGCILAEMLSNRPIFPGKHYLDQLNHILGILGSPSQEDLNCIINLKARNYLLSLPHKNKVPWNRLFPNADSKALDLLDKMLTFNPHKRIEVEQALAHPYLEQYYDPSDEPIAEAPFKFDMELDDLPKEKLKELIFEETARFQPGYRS
T4 sequence (Q16539 whole entry R49K/H107T/L108F/K165R): as the sequence (Q16539 whole entry) above, with R49K, H107T, L108F, K165R counted along it
T3 sequence (Q16539 whole entry R49K/H107T/L108F/K165R): as the sequence (Q16539 whole entry) above, with R49K, H107T, L108F, K165R counted along it

## Cc1ccc(-n2nc(C(C)(C)C)cc2NC(=O)Nc2ccc(OCCN3CCOCC3)c3ccccc23)cc1 [BIRB 796, doramapimod]
[1]
  clinical effect: no clinical effect
  serum CRP levels: transiently reduced

## C[S+]([O-])c1ccc(-c2nc(-c3ccncc3)c(-c3ccc(F)cc3)[nH]2)cc1 (centres unmarked) [SB203580, reference compound]
[2]
  stabilization of p38β (DSF): stabilized both p38α and p380
[3]; 10 μM
  reduction of TNFα/hyperthermia-induced permeability increase: 50%
[4]; 10 μM
  reduction of hyperthermia-augmented neutrophil TEM: 84%
[5]; 10 μM
  anisomycin-stimulated phosphorylation of MK2: reduced
[6]; 10 μM
  anisomycin-stimulated phosphorylation of Stat-1: reduced
[7]; 1000 μg i.p.
  reduction of lavage neutrophil content vs. DMSO-treated controls: 46.8%
[7]
  mice died within 24 h: one of six

## O=C(Nc1ccc(CN2CCOCC2)cc1)c1ccc(Cl)cc1 [SF-7-009]
[8]; [20]
  protein leak into bronchoalveolar lavage fluid (total protein): reduced protein leak
[8]; [21]
  protein leak into bronchoalveolar lavage fluid (total protein): reduced protein leak

## CN(C)c1cccc2c(S(=O)(=O)Nc3ccc(CN4CCOCC4)cc3)cccc12 [SF-7-044]
[8]; [21]
  protein leak into bronchoalveolar lavage fluid (total protein): reduced protein leak

## O=C1c2cc(S(=O)(=O)NCCO)ccc2-c2ccc(S(=O)(=O)NCCO)cc21 [UM60, N2,N7-di(2-hydroxyethyl)-9-oxo-9H-2,7-fluorenedisulfonamide]
[9]
  stabilization of ERK2 (DSF): not ERK2
[3]; 10 μM
  reduction of TNFα/hyperthermia-induced permeability increase: no effect
[3]; 25 μM
  reduction of TNFα/hyperthermia-induced permeability increase: no effect
[3]; 100 μM
  reduction of TNFα/hyperthermia-induced permeability increase: 71%
[4]; 10 μM
  reduction of hyperthermia-augmented neutrophil TEM: 18%
[4]; 25 μM
  reduction of hyperthermia-augmented neutrophil TEM: 89%
[4]; 50 μM
  reduction of hyperthermia-augmented neutrophil TEM: less than baseline levels
[10]
  toxicity in MTS assay: Neither compound was toxic
[11]
  toxicity in LDH release assay: Neither compound was toxic
[7]
  mice died within 24 h: Four of six
[12]
  stabilization of p38α (DSF): stabilized p38α
  ΔTm at 100 µM: ~0.7 °C

## O=C(Nc1ccc(CN2CCS(=O)(=O)CC2)cc1)c1ccc(Cl)cc1 [UM101, 4-chloro-N-{4-[(1,1-dioxo-1lambda˜6˜,4-thiazinan-4-yl)methyl]phenyl}benzamide]
[9]
  stabilization of ERK2 (DSF): not ERK2
[2]
  stabilization of p38β (DSF): only stabilized p38α
[13]
  binding to p38α mutant (DSF): no UM101-binding
[14]
  interaction with p38β (STD-NMR): much weaker
[15]
  interaction with mutated p38α (STD-NMR): much weaker
[3]; 10 μM
  reduction of TNFα/hyperthermia-induced permeability increase: 74%
[3]; 25 μM
  reduction of TNFα/hyperthermia-induced permeability increase: 89%
[3]; 100 μM
  reduction of TNFα/hyperthermia-induced permeability increase: > 100%
[4]; 10 μM
  reduction of hyperthermia-augmented neutrophil TEM: 95%
[4]; 25 μM
  reduction of hyperthermia-augmented neutrophil TEM: less than baseline levels
[4]; 50 μM
  reduction of hyperthermia-augmented neutrophil TEM: less than baseline levels
[10]
  toxicity in MTS assay: Neither compound was toxic
[11]
  toxicity in LDH release assay: Neither compound was toxic
[5]; 50 μM
  anisomycin-stimulated phosphorylation of MK2: reduced
[6]; 50 μM
  anisomycin-stimulated phosphorylation of Stat-1: reduced
[8]; [20]
  protein leak into bronchoalveolar lavage fluid (total protein): reduced protein leak
[7]; 100 μg i.p.
  reduction of lavage neutrophil content vs. DMSO-treated controls: 44.4%
[7]; 300 μg i.p.
  reduction of lavage neutrophil content vs. DMSO-treated controls: 49.5%
[7]; 500 μg i.p.
  reduction of lavage neutrophil content vs. DMSO-treated controls: 55.3%
[7]; 1000 μg i.p.
  reduction of lavage neutrophil content vs. DMSO-treated controls: 54%
[7]; 100, 300, 500 or 1000 μg i.p., 24 h
  survival of pretreated mice: All sixteen UM101-pretreated mice survived
[16]
  interaction with p38α (STD-NMR): protons in both aromatic rings of UM101 interact with p38α
[12]
  stabilization of p38α (DSF): only stabilized p38α
  ΔTm at 100 µM: ~0.7 °C

## NC(=O)c1ccc(N(C(N)=O)c2c(F)cccc2F)nc1-c1ccc(F)cc1F [VX-702]
[17]
  ACR20 symptom score: small increases in proportion of treated subjects with ACR20 symptom score vs. placebo

## Cc1cc(F)ccc1-c1nc(NC(CO)CO)nc2c1ccc(=O)n2-c1c(F)cccc1F [dilmapimod]
[18]
  safety: safe at the doses administered
  serum C-reactive protein (CRP) levels: modestly reduced

## Cc1c(F)cc(C(=O)NC2CC2)cc1-c1ccc(C(=O)NCC(C)(C)C)cn1 [losmapimod]
[19]
  serum CRP: reduced serum CRP
  vascular relaxation: improved vascular relaxation
